# Measured values published in US12643905B2, “Spiropyrrolidine derived antiviral agents” (priority 2021, dated 2026).
# pIC50: −log10 of the molar value.
# Molecular target: SARS-CoV-2 3CL-protease (Severe acute respiratory syndrome coronavirus 2, UniProt P0DTD1)
# Test: SARS-CoV-2 3C-like (3CL) protease fluorescence assay (FRET)
# Format: biochemical
# Conditions: recombinant SARS-CoV-2 3CL-protease 10 nM, 30 min preincubation, run in duplicate; read-out: FRET IC50
row,Compound,pIC50
1,[2H]C([2H])([2H])N(C(=O)C(=O)Nc1ccc(C(F)(F)F)cc1)[C@@H](CC1CC1)C(=O)N1C[C@]2(C[C@H]1C#N)C(=O)Nc1ccccc12 [Example 54],> 7.00
2,[2H]C([2H])([2H])N(C(=O)C(=O)Nc1ccc(F)cc1C(F)(F)F)[C@@H](CC1CC1)C(=O)N1C[C@]2(C[C@H]1C#N)C(=O)Nc1ccccc12 [Example 55],> 7.00
3,[2H]C([2H])([2H])N(C(=O)C(=O)NCC(C)C)[C@@H](CCCC)C(=O)N1C[C@]2(C[C@H]1C#N)C(=O)Nc1ccccc12 [Example 56],> 7.00
4,[2H]C([2H])([2H])N(C(=O)C(=O)c1ccc(F)cc1)[C@@H](CCCC)C(=O)N1C[C@]2(C[C@H]1C#N)C(=O)Nc1ccccc12 [Example 57],> 7.00
5,CC(C)(C)C[C@@H](C(=O)N1C[C@]2(C[C@H]1C#N)C(=O)Nc1ccccc12)N(CC(F)F)C(=O)C(=O)Nc1ccccc1 [Example 60],6.00 to 7.00
6,CC(C)(C)C[C@@H](C(=O)N1C[C@]2(C[C@H]1C#N)C(=O)Nc1ccccc12)N(CC(F)F)C(=O)C(=O)Nc1ccccn1 [Example 61],< 6.00
7,CC(C)(C)C[C@@H](C(=O)N1C[C@]2(C[C@H]1C#N)C(=O)Nc1ccccc12)N(CC(F)F)C(=O)C(=O)Nc1ccc(F)cc1 [Example 62],6.00 to 7.00
8,CC(C)(C)C[C@@H](C(=O)N1C[C@]2(C[C@H]1C#N)C(=O)Nc1ccccc12)N(CC(F)F)C(=O)C(=O)NC1CC1 [Example 63],6.00 to 7.00
9,CC(C)(C)C[C@@H](C(=O)N1C[C@]2(C[C@H]1C#N)C(=O)Nc1ccccc12)N(CC(F)(F)F)C(=O)C(=O)Nc1ccc(F)cc1 [Example 64],6.00 to 7.00
10,CC(C)(C)C[C@@H](C(=O)N1C[C@]2(C[C@H]1C#N)C(=O)Nc1ccccc12)N(CC(F)(F)F)C(=O)C(=O)Nc1ccccc1 [Example 65],6.00 to 7.00
11,CC(C)(C)C[C@@H](C(=O)N1C[C@]2(C[C@H]1C#N)C(=O)Nc1ccccc12)N(CC(F)(F)F)C(=O)C(=O)Nc1ccccn1 [Example 66],< 6.00
12,CC(C)(C)C[C@@H](C(=O)N1C[C@]2(C[C@H]1C#N)C(=O)Nc1ccccc12)N(CC(F)(F)F)C(=O)C(=O)NC1CC1 [Example 67],6.00 to 7.00
13,Cc1cccc(C)c1NC(=O)C(=O)N[C@@H](Cc1ccc(F)cc1)C(=O)N1C[C@]2(C[C@H]1C#N)C(=O)Nc1ccccc12 [Example 73],> 7.00
14,Cc1cccc(C)c1NC(=O)C(=O)N[C@@H](CC1CC1)C(=O)N1C[C@]2(C[C@H]1C#N)C(=O)Nc1ccccc12 [Example 78],> 7.00
15,CCCC[C@H](NC(=O)C(=O)Nc1c(F)cccc1C(F)(F)F)C(=O)N1C[C@]2(C[C@H]1C#N)C(=O)Nc1ccccc12 [Example 79],> 7.00
16,CC(C)(C)C[C@H](NC(=O)C(=O)Nc1cc(F)cc(F)c1)C(=O)N1C[C@]2(C[C@H]1C#N)C(=O)Nc1ccccc12 [Example 86],> 7.00
17,CC(C)(C)C[C@H](NC(=O)C(=O)NC(C)(C)c1ccccn1)C(=O)N1C[C@]2(C[C@H]1C#N)C(=O)Nc1ccccc12 [Example 106],> 7.00
18,CC(C)(C)C[C@H](NC(=O)C(=O)NC1(c2ccccc2C(F)(F)F)CC1)C(=O)N1C[C@]2(C[C@H]1C#N)C(=O)Nc1ccccc12 [Example 107],> 7.00
19,CC(C)(C)C[C@H](NC(=O)C(=O)NC1(c2ccc(C(F)(F)F)cc2)CC1)C(=O)N1C[C@]2(C[C@H]1C#N)C(=O)Nc1ccccc12 [Example 108],> 7.00
20,CN(C(=O)C(=O)N[C@@H](CC(C)(C)C)C(=O)N1C[C@]2(C[C@H]1C#N)C(=O)Nc1ccccc12)C1CC1 [Example 109],< 6.00

row,Compound,pIC50
1,CC(C)(C)C[C@H](NC(=O)C(=O)N1CCCCC1)C(=O)N1C[C@]2(C[C@H]1C#N)C(=O)Nc1ccccc12 [Example 110],< 6.00
2,CC(C)(C)C[C@H](NC(=O)C(=O)N1CCC(F)(F)CC1)C(=O)N1C[C@]2(C[C@H]1C#N)C(=O)Nc1ccccc12 [Example 111],< 6.00
3,CC(C)(C)C[C@H](NC(=O)C(=O)N1CCC(C(F)(F)F)CC1)C(=O)N1C[C@]2(C[C@H]1C#N)C(=O)Nc1ccccc12 [Example 112],6.00 to 7.00
4,CC(C)(C)C[C@H](NC(=O)C(=O)Nc1ccc2cccnc2c1)C(=O)N1C[C@]2(C[C@H]1C#N)C(=O)Nc1ccccc12 [Example 113],> 7.00
5,CC(C)(C)C[C@H](NC(=O)C(=O)Nc1ccc2ncccc2c1)C(=O)N1C[C@]2(C[C@H]1C#N)C(=O)Nc1ccccc12 [Example 114],> 7.00
6,CC(C)(C)C[C@H](NC(=O)C(=O)Nc1ncccc1F)C(=O)N1C[C@]2(C[C@H]1C#N)C(=O)Nc1ccccc12 [Example 121],> 7.00
7,CC(C)(C)C[C@H](NC(=O)C(=O)Nc1c(F)cncc1F)C(=O)N1C[C@]2(C[C@H]1C#N)C(=O)Nc1ccccc12 [Example 122],> 7.00
8,CC(C)(C)C[C@H](NC(=O)C(=O)Nc1ccc2[nH]ccc2c1)C(=O)N1C[C@]2(C[C@H]1C#N)C(=O)Nc1ccccc12 [Example 123],> 7.00
9,CC(C)(C)C[C@H](NC(=O)C(=O)Nc1ccc2cc[nH]c2c1)C(=O)N1C[C@]2(C[C@H]1C#N)C(=O)Nc1ccccc12 [Example 124],> 7.00
10,CC(C)(C)C[C@H](NC(=O)C(=O)Nc1ncccc1C(F)(F)F)C(=O)N1C[C@]2(C[C@H]1C#N)C(=O)Nc1ccccc12 [Example 125],> 7.00
11,Cc1cccnc1NC(=O)C(=O)N[C@@H](CC(C)(C)C)C(=O)N1C[C@]2(C[C@H]1C#N)C(=O)Nc1ccccc12 [Example 126],> 7.00
12,Cc1ccc(NC(=O)C(=O)N[C@@H](CC(C)(C)C)C(=O)N2C[C@]3(C[C@H]2C#N)C(=O)Nc2ccccc23)nc1 [Example 127],> 7.00
13,CC(C)(C)C[C@H](NC(=O)C(=O)Nc1ccnc(C(F)(F)F)c1)C(=O)N1C[C@]2(C[C@H]1C#N)C(=O)Nc1ccccc12 [Example 128],> 7.00
14,CC(C)(C)C[C@H](NC(=O)C(=O)N[C@]12C[C@](C(F)(F)F)(C1)C2)C(=O)N1C[C@]2(C[C@H]1C#N)C(=O)Nc1ccccc12 [Example 129],> 7.00
15,CC(C)(C)C[C@H](NC(=O)C(=O)NC12CCC(CC1)CC2)C(=O)N1C[C@]2(C[C@H]1C#N)C(=O)Nc1ccccc12 [Example 130],> 7.00
16,CC(C)(C)C[C@H](NC(=O)C(=O)NC1CCC(F)(F)CC1)C(=O)N1C[C@]2(C[C@H]1C#N)C(=O)Nc1ccccc12 [Example 131],> 7.00
17,Cc1cccc(C(F)(F)F)c1NC(=O)C(=O)N[C@@H](CC(C)(C)C)C(=O)N1C[C@]2(C[C@H]1C#N)C(=O)Nc1ccccc12 [Example 132],> 7.00
18,CC(C)(C)C[C@H](NC(=O)C(=O)NC1(C(F)(F)F)CC1)C(=O)N1C[C@]2(C[C@H]1C#N)C(=O)Nc1ccccc12 [Example 134],> 7.00
19,CC(C)(C)C[C@H](NC(=O)C(=O)NC(C)(C)C(F)(F)F)C(=O)N1C[C@]2(C[C@H]1C#N)C(=O)Nc1ccccc12 [Example 135],> 7.00
20,CC(C)(C)C[C@H](NC(=O)C(=O)N[C@]12CC[C@H](C1)C2)C(=O)N1C[C@]2(C[C@H]1C#N)C(=O)Nc1ccccc12 [Example 136],> 7.00

row,Compound,pIC50
1,CC(C)(C)C[C@H](NC(=O)C(=O)Nc1ccc(C(F)(F)F)cc1C(F)(F)F)C(=O)N1C[C@]2(C[C@H]1C#N)C(=O)Nc1ccccc12 [Example 137],6.00 to 7.00
2,CC(C)(C)C[C@H](NC(=O)C(=O)NC1(c2ccccc2F)CC1)C(=O)N1C[C@]2(C[C@H]1C#N)C(=O)Nc1ccccc12 [Example 139],> 7.00
3,CC(C)(C)C[C@H](NC(=O)C(=O)NC1(C)CC1)C(=O)N1C[C@]2(C[C@H]1C#N)C(=O)Nc1ccccc12 [Example 140],> 7.00
4,CC(C)(C)C[C@H](NC(=O)C(=O)N[C@]12C[C@](C)(C1)C2)C(=O)N1C[C@]2(C[C@H]1C#N)C(=O)Nc1ccccc12 [Example 141],> 7.00
5,CC(C)(C)C[C@H](NC(=O)C(=O)N[C@]12C[C@](F)(C1)C2)C(=O)N1C[C@]2(C[C@H]1C#N)C(=O)Nc1ccccc12 [Example 142],> 7.00
6,Cc1cc(F)cc(C)c1NC(=O)C(=O)N[C@@H](CC(C)(C)C)C(=O)N1C[C@]2(C[C@H]1C#N)C(=O)Nc1ccccc12 [Example 143],> 7.00
7,COc1cccc(C)c1NC(=O)C(=O)N[C@@H](CC(C)(C)C)C(=O)N1C[C@]2(C[C@H]1C#N)C(=O)Nc1ccccc12 [Example 144],> 7.00
8,CC(C)(C)C[C@H](NC(=O)C(=O)Nc1c(C#N)cccc1C(F)(F)F)C(=O)N1C[C@]2(C[C@H]1C#N)C(=O)Nc1ccccc12 [Example 145],6.00 to 7.00
9,CC(C)(C)C[C@H](NC(=O)C(=O)Nc1c(F)cccc1Cl)C(=O)N1C[C@]2(C[C@H]1C#N)C(=O)Nc1ccccc12 [Example 146],> 7.00
10,Cc1cccc(Cl)c1NC(=O)C(=O)N[C@@H](CC(C)(C)C)C(=O)N1C[C@]2(C[C@H]1C#N)C(=O)Nc1ccccc12 [Example 147],> 7.00
11,CC(C)(C)C[C@H](NC(=O)C(=O)Nc1c(Cl)cccc1C#N)C(=O)N1C[C@]2(C[C@H]1C#N)C(=O)Nc1ccccc12 [Example 148],> 7.00
12,CC(C)(C)C[C@H](NC(=O)C(=O)Nc1ccc(Cl)cc1C(F)(F)F)C(=O)N1C[C@]2(C[C@H]1C#N)C(=O)Nc1ccccc12 [Example 149],> 7.00
13,CC(C)(C)C[C@H](NC(=O)C(=O)Nc1c(F)ccc(F)c1F)C(=O)N1C[C@]2(C[C@H]1C#N)C(=O)Nc1ccccc12 [Example 150],> 7.00
14,CN(C(=O)C(=O)Nc1c(Cl)cccc1Cl)[C@@H](CC(C)(C)C)C(=O)N1C[C@]2(C[C@H]1C#N)C(=O)Nc1ccccc12 [Example 151],> 7.00
15,Cc1ccnc(C)c1NC(=O)C(=O)N[C@@H](CC(C)(C)C)C(=O)N1C[C@]2(C[C@H]1C#N)C(=O)Nc1ccccc12 [Example 152],> 7.00
16,CC(C)(C)C[C@H](NC(=O)C(=O)Nc1cc(C(F)(F)F)ccn1)C(=O)N1C[C@]2(C[C@H]1C#N)C(=O)Nc1ccccc12 [Example 153],> 7.00
17,CC(C)(C)C[C@H](NC(=O)C(=O)Nc1ccc(C(F)(F)F)cn1)C(=O)N1C[C@]2(C[C@H]1C#N)C(=O)Nc1ccccc12 [Example 154],> 7.00
18,CC(C)(C)C[C@H](NC(=O)C(=O)Nc1cccc(C(F)(F)F)n1)C(=O)N1C[C@]2(C[C@H]1C#N)C(=O)Nc1ccccc12 [Example 155],> 7.00
